How the values were obtained:
[1] = target: T1, Thrombopoietin receptor (Homo sapiens, UniProt P40238); assay: Agonist activity at human thrombopoietin receptor in Ba/F3 cells assessed as activation of Stat5 response element-driven reporter gene expression; type: functional, cell-based, BaF3
T1 sequence (P40238 whole entry): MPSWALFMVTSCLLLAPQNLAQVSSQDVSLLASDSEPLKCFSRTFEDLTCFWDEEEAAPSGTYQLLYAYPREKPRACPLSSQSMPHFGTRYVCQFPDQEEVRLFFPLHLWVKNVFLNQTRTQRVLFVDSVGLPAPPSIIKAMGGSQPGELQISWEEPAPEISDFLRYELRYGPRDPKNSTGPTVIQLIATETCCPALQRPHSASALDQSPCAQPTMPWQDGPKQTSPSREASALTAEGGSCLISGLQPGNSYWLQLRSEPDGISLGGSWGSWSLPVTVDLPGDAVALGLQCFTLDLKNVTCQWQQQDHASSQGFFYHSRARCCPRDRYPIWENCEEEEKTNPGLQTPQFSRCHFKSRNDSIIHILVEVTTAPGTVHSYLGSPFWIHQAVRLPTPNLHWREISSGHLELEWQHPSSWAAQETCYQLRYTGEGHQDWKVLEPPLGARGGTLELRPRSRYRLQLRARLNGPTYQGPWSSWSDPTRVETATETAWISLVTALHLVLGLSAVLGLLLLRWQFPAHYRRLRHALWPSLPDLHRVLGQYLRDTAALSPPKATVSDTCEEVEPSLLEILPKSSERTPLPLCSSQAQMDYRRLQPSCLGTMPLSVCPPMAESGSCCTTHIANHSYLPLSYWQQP

[2] = target: T2, Thrombopoietin receptor (Homo sapiens) (UniProt P40238); assay: Agonist activity at human thrombopoietin receptor in Ba/F3 cells assessed as activation of Stat5 response element-driven reporter gene expression relative to 30 ng/mL thrombopoietin; type: functional, cell-based; conditions: BaF3
T2 sequence (whole entry): T1 sequence (P40238 whole entry)

[3] = Cmax in BALB/c mouse at 20 mg/kg, po; type: ADME, organism-based; design: dose 20 mg/kg, route oral; conditions: in vivo
[4] = Bioavailability in BALB/c mouse at 20 mg/kg, po; type: ADME, organism-based; conditions: in vivo
[5] = Half life in BALB/c mouse at 20 mg/kg, po; type: ADME, organism-based; design: dose 20 mg/kg, route oral; conditions: in vivo

EC50 [1]	Efficacy [2]	Cmax [3]	bioavailability [4]	half-life [5]	Compound
> 30 µM					COc1cc2c(ccc3c4ccccc4[nH]c23)cc1C(=O)O
0.473 µM	96%				O=C(O)c1cc2c(cc1O)-c1[nH]c3cc(C(F)(F)F)ccc3c1CC2
> 30 µM					Cc1cc(-c2ccc3c4c([nH]c3c2F)-c2ccc(C3=NCCN3)cc2CC4)ccc1F
0.284 µM	136%				CN(C)c1ccc(-c2ccc3c4c([nH]c3c2)-c2cc(O)c(C(=O)O)cc2CC4)cc1
0.194 µM	128%				Cc1cccc(-c2ccc3c4c([nH]c3c2)-c2cc(O)c(C(=O)O)cc2CC4)c1
	141%				CCCCc1ccc(-c2ccc3c4c([nH]c3c2)-c2ccc(C(=O)O)cc2CC4)cc1
0.87 µM	76%				Cc1ccc2c(c1)[nH]c1c3cc(O)c(C(=O)O)cc3ccc21
0.076 µM	111%				CCCCc1ccc(-c2ccc3c4c([nH]c3c2)-c2ccc(C(N)=O)cc2CC4)cc1
0.127 µM	132%				CCCCc1ccc(-c2ccc3c4c([nH]c3c2)-c2ccc(C(=O)N(C)C)cc2CC4)cc1
0.799 µM	101%				O=C(O)c1cc2c(cc1O)-c1[nH]c3c(F)ccc(C(F)(F)F)c3c1CC2
0.026 µM	143%				CCCCc1ccc(-c2ccc3c4c([nH]c3c2)-c2cc(O)c(C(=O)O)cc2CC4)cc1
0.333 µM	115%				O=C(O)c1cc2c(cc1O)-c1[nH]c3ccc(C(F)(F)F)cc3c1CC2
0.109 µM	154%				Cc1ccc(-c2ccc3c4c([nH]c3c2)-c2cc(O)c(C(=O)O)cc2CC4)cc1
0.041 µM	129%				CCCOc1ccc(-c2ccc3c4c([nH]c3c2)-c2cc(O)c(C(=O)O)cc2CC4)cc1
> 30 µM					O=C(O)c1cc2c(cc1O)-c1[nH]c3cc(C4CCCCC4)ccc3c1CC2

More lines, now with the values behind:

Compound	EC50 [1]	Efficacy [2]	Cmax [3]	bioavailability [4]	half-life [5]
COCc1ccc(-c2ccc3c4c([nH]c3c2)-c2cc(O)c(C(=O)O)cc2CC4)cc1	0.452 µM	132%			
O=C(O)c1ccc2c3c([nH]c2c1)-c1cc(O)c(C(=O)O)cc1CC3	7.79 µM	74%			
Cn1c2ccccc2c2ccc3cc(C(=O)O)c(O)cc3c21	> 30 µM				
COC(=O)c1cc2ccc3c4ccccc4[nH]c3c2cc1O	1.3 µM	11%			
O=C(O)c1cc2c(cc1O)-c1[nH]c3cc(-c4ccccc4)ccc3c1CC2	0.373 µM	136%			
O=C(O)c1cc2c(cc1O)-c1[nH]c3c(C(F)(F)F)cccc3c1CC2	7.83 µM	37%			
O=C(O)c1cc2ccc3c4ccccc4[nH]c3c2cc1O	3.4 µM	100%			
OCc1cc2ccc3c4ccccc4[nH]c3c2cc1O	> 30 µM				
CCCCc1ccc(-c2ccc3c4c([nH]c3c2)-c2ccc(-c3nnn[nH]3)cc2CC4)cc1	0.119 µM	128%			
Cc1cc(-c2ccc3c4c([nH]c3c2)-c2cc(O)c(C(=O)O)cc2CC4)ccc1F	0.035 µM	126%			
O=C(O)c1cc2c(cc1O)-c1[nH]c3cc(-c4cccc(C(F)(F)F)c4)ccc3c1CC2	0.148 µM	127%			
O=C(O)c1cc2c(cc1O)-c1[nH]c3cccc(-c4ccccc4)c3c1CC2	> 30 µM				
N#Cc1ccc2[nH]c3c(c2c1)CCc1cc(C(=O)O)c(O)cc1-3	> 30 µM				
Cc1cc(C)cc(-c2ccc3c4c([nH]c3c2)-c2cc(O)c(C(=O)O)cc2CC4)c1	0.067 µM	128%	2000 nM	10%	4.1 h
CCCCc1ccc(-c2ccc3c4c([nH]c3c2F)-c2ccc(C(=O)O)cc2CC4)cc1	0.055 µM	140%			
CCCOc1cccc(-c2ccc3c4c([nH]c3c2)-c2cc(O)c(C(=O)O)cc2CC4)c1	0.043 µM	147%			
Cc1ccc(-c2ccc3c4c([nH]c3c2)-c2cc(O)c(C(=O)O)cc2CC4)cc1C	0.065 µM	127%			
O=C(O)c1cc2ccc3c4ccc(C(F)(F)F)cc4[nH]c3c2cc1O	0.143 µM	128%			
Cc1ccc2c(c1)[nH]c1c3cc(O)c(CC(=O)O)cc3ccc21	9.2 µM	70%			
Cc1cccc(C)c1-c1ccc2c3c([nH]c2c1)-c1cc(O)c(C(=O)O)cc1CC3	0.232 µM	30%			
O=C(O)c1cc2c(cc1O)-c1[nH]c3ccc(-c4ccccc4)cc3c1CC2	0.569 µM	68%			
